Laboratory results published in patent publication US20040019024A1, “Use of vitamin d derivatives as bone resorption inhibitors” (priority 2000, published 2004).

Legend:
[1] = system: bone marrow cells of Paget's disease of bone patients; assay: Osteoclast formation induced by 1α,25-dihydroxyvitamin D3 in bone marrow cultures from Paget's disease of bone patients; type: cell-based, human; settings: for osteoclast formation (average number of cells ± S.D.): Paget's marrow
Excerpt: (§1) Mononuclear cells were fractionated from bone marrow cells of healthy normal persons according to a method of Kurihara et al. (Endocrinology, vol. 126, 2733-2741 (1990)). Briefly, bone marrow cells were obtained from normal persons, a mononuclear cell fraction was collected by Hypaque-Ficoll density gradient centrifugation, the cell fraction was washed with α-Minimal Essential Media (α-MEM) 3 times, and the cells dispersed in α-MEM containing 10% fetal bovine serum. This mononuclear cell suspension was seeded in 100-mm tissue culture plates, the culture plate was kept for 90 minutes at 37° C. in a 4% CO2-air atmosphere, and the non-adherent cells were collected. The non-adherent mononuclear cells were dispersed into α-MEM culture medium containing 20% horse serum at 10^6 cells/ml, the cell suspension was seeded into 96-well multi plates at 100 μl/well.
The capacity of the compound 11 (23S isomer) to inhibit osteoclast formation induced by 1α,25-dihydroxyvitamin D3 was evaluated as follows: Various concentrations of 1α,25-dihydroxyvitamin D3, various concentrations of compound 11 ([…]) solution were added to each well. The culture medium was replaced twice weekly and the cultures continued for 3 weeks at 37° C. in an atmosphere of 4% CO2-air. Osteoclasts that formed were identified by their capacity to bind the 23C6 antibody. The nuclei were counter stained with methyl green. Cells that reacted with the 23C6 antibody and had 3 or more nuclei were scored as osteoclasts.
Bone marrow cells were obtained from involved bones of patients with Paget's disease of bone and processed and cultured as described above for normal bone cells. The cultures were treated in an identical manner with 1α,25-dihydroxyvitamin D3 and/or compound 11 (23S isomer) as described in Example 1.
Bone marrow cultures were performed as described in Example 1, with the exception that different types of vitamin D antagonists were added to at varying concentrations to bone marrow cultures stimulated with 1α,25-dihydroxyvitamin D3. The bone marrow cells were taken from involved bones of patients with Paget's disease of bone and the cultures were performed as described in Example 2. There are two diastereoisomers, based on the asymmetric carbon at the 23 position, in compounds 13 and 16. The isomer having the shorter retention time on reverse phase HPLC analysis was the more polar isomer and the isomer having the longer retention time was the less polar isomer.

[2] = system: bone marrow cells of normal persons; assay: Osteoclast formation induced by 1α,25-dihydroxyvitamin D3 in normal human bone marrow cultures; type: cell-based; settings: for osteoclast formation (average number of cells ± S.D.): compound alone, normal marrow, 3 weeks
Excerpt: as §1, with “μl/well. The capacity of the compound 11 (23S isomer) to inhibit osteoclast formation induced by 1α,25-dihydroxyvitamin D3 was evaluated as follows: Various concentrations of 1α,25-dihydroxyvitamin D3, various concentrations of compound 11 (23S isomer) or a combination of 10^−8 M 1α,25-dihydroxyvitamin D3 solution and various concentrations of compound 11 (23S isomer) solution were added to each well. The culture medium was replaced twice weekly and the cultures continued for 3 weeks at 37° C. in an atmosphere of 4% CO2-air. Osteoclasts that formed were identified by their capacity to bind the 23C6 antibody. The nuclei were counter stained with methyl green. Cells that reacted with the 23C6 antibody and had 3 or more nuclei were scored as osteoclasts.” for “μl/well.”

[3] = system: vitamin D deficient rats; assay: Bone resorption (serum calcium) induced by 1α,25-dihydroxyvitamin D3 in vitamin D deficient rats; type: in vivo, Wistar rats
Protocol: Four-week-old male Wistar rats purchased from Japan SLC (Shizuoka, in Japan) were used. The animals were kept in wire-net cages (three animals in a cage) and raised for 7 weeks with free access to a vitamin D-deficient diet (Ca, 0.0036%; P, 0.3%; Harlan Taklad Research Diet, Madison, Wis., U.S.A.) and drinking water (well water treated with hypochlorite of […]±0.2 ppm). Temperature was kept at 23±1° C. and the humidity at 55±10%. Five animals were used for each experimental group. The control animals received intravenously administered solvent (5% ethanol-0.1% Triton X-100-physiological saline solution), and the experimental animals were intravenously administered 1α,25-dihydroxyvitamin D3 at a dose of 0.25 μg/kg. For animals receiving vitamin D derivatives, compound 11 (23S isomer) was administered intravenously at a dose of 2 μg/kg, 10 μg/kg or 50 μg/kg, or the compound 11 (23S isomer) with or without 1α,25-dihydroxyvitamin D3 at a dose of 0.25 μg/kg. The volume was 2 ml/kg for each animal. 24 hours after administration, a blood sample was taken out from abdominal descending aorta under ether anesthesia, the serum was collected according to conventional methods, and the calcium concentration in the serum was measured. The calcium concentrations were measured according to OCPC-method (Am. J. Clin. Pathol., vol. 45, 290-296 (1966)) with an autoanalyzer (type 7070, manufactured by Hitachi Seisakusho).

[4] = 10^−10 M 1α,25-dihydroxyvitamin D3 + compound 10^−7 M
[5] = 10^−10 M 1α,25-dihydroxyvitamin D3 + compound 10^−8 M
[6] = 10^−10 M 1α,25-dihydroxyvitamin D3 + compound 10^−9 M
[7] = compound alone, Paget's marrow cultures

Structure (SMILES) | osteoclast formation (average number of cells ± S.D.) [1, 4] [cells] | osteoclast formation (average number of cells ± S.D.) [1, 5] [cells] | osteoclast formation (average number of cells ± S.D.) [1, 6] [cells] | induction of osteoclast formation by the compound alone (in words) ([1]; Paget's marrow cultures) | osteoclast formation (average number of cells ± S.D.) ([1]; compound alone, 10^−7 M) [cells] | osteoclast formation (average number of cells ± S.D.) ([1]; compound alone, 10^−8 M) [cells] | osteoclast formation (average number of cells ± S.D.) ([1]; compound alone, 10^−9 M) [cells] | effect on basal osteoclast formation (in words) [1, 7] | further results
C=C1CC(CC(C)C2CCC3C(=CC=C4CC(O)CC(O)C4=C)CCCC32C)CC1=O (single isomer, unassigned; less polar) [compound 13 (less polar isomer)] | 14 ± 1 | 70 ± 2 | 127 ± 4 | did not induce the osteoclast formation | 1 ± 1 | 6 ± 2 | 7 ± 1 | inhibited basal osteoclast formation | –
C=C1CC(CC(C)C2CCC3C(=CC=C4CC(O)CC(O)C4=C)CCCC32C)CC1=O (single isomer, unassigned; more polar) [compound 13 (more polar isomer)] | 31 ± 5 | 79 ± 9 | 152 ± 12 | did not induce the osteoclast formation | 3 ± 4 | 25 ± 4 | 44 ± 5 | inhibited basal osteoclast formation | –
C=C1/C(=C\C=C2/CCC[C@]3(C)[C@@H]([C@H](C)CCCC(C)(C)O)CC[C@@H]23)C[C@@H](O)C[C@@H]1O [1α,25-dihydroxyvitamin D3, reference compound] | – | – | – | – | 205 ± 6 | 206 ± 16 | 211 ± 25 | – | osteoclast formation at 10^−10 M (in words) ([1]; 10^−10 M, bone marrow cells from Paget's disease of bone patients): is induced; lowest concentration inducing osteoclast formation ([1]; Paget's marrow cultures): 10^−11 M; osteoclast formation (average number of cells ± S.D.) ([1]; compound alone, 10^−10 M): 180 ± 15 cells; osteoclast formation (average number of cells ± S.D.) ([1]; compound alone, 10^−11 M): 134 ± 14 cells; osteoclast formation at 10^−10 M (in words) ([2]; 10^−10 M, bone marrow cells of normal persons): is not induced; osteoclast formation (average number of cells ± S.D.) ([2]; 10^−7 M): 91 ± 7 cells; osteoclast formation (average number of cells ± S.D.) ([2]; 10^−8 M): 87 ± 12 cells; osteoclast formation (average number of cells ± S.D.) ([2]; 10^−9 M): 34 ± 6 cells; osteoclast formation (average number of cells ± S.D.) ([2]; 10^−10 M): 11 ± 2 cells; osteoclast formation (average number of cells ± S.D.) ([2]; 10^−11 M): 13 ± 3 cells; concentration at which osteoclast formation was maximal ([2]; normal marrow cultures): 10^−8 M; serum calcium concentration compared to controls (in words) ([3]; 0.25 μg/kg, 24 hours after receiving): significant increased serum calcium concentration; serum Ca concentration ([3]; compound alone, 0.25 μg/kg intravenously, 24 hours after administration): 5.42 ± 0.12 mg/100 ml serum
C=C1CC(CC(C)C2CCC3C(=CC=C4CC(O)CC(O)C4=C)CCCC32C)OC1=O (stereo not drawn) [compound 11 (23R isomer)] | 18 ± 9 | 70 ± 12 | 145 ± 8 | did not induce the osteoclast formation | 1 ± 1 | 20 ± 3 | 32 ± 3 | inhibited basal osteoclast formation | –
